Measurements published in ChEMBL document CHEMBL1201862, “PubChem BioAssay data set” (2004).
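All cell lines were grown in 96-well plates and treated with compound for 48 hours. Abbreviation: GI50, concentration required for 50% inhibition of growth.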 Calls of active or inactive are those of the source. Cut-off read from the data, not from the text of the source: active = GI50 up to about 1.1 µM and inactive = higher.

Key:
Experiment in all cases: NCI-60 cell line screen, 48 h
786-0 = tested on: 786-0
CAKI-1 = tested on: CAKI-1
CCRF-CEM = tested on: CCRF-CEM
EKVX = tested on: EKVX
HCC 2998 = tested on: HCC 2998
HCT-116 = tested on: HCT-116
HL-60 = tested on: HL-60
HOP-62 = tested on: HOP-62
HOP-92 = tested on: HOP-92
HT-29 = tested on: HT-29
KM12 = tested on: KM12
MOLT-4 = tested on: MOLT-4
NCI-H522 = tested on: NCI-H522
NCI/ADR-RES = tested on: NCI/ADR-RES
OVCAR-3 = tested on: OVCAR-3
OVCAR-8 = tested on: OVCAR-8
SW-620 = tested on: SW-620
TK-10 = tested on: TK-10
U-251 = tested on: U-251
UO-31 = tested on: UO-31

Measured: GI50

CCCCCC(=O)Nc1[nH]cnc1C(N)=O
inactive: 786-0 > 100 µM | CAKI-1 > 100 µM | CCRF-CEM > 100 µM | EKVX > 100 µM | HCC 2998 > 100 µM | HCT-116 > 100 µM | HL-60 > 100 µM | HOP-62 > 100 µM | HOP-92 71.3 µM | HT-29 > 100 µM | KM12 > 100 µM | MOLT-4 > 100 µM | NCI-H522 > 100 µM | NCI/ADR-RES > 100 µM | OVCAR-3 > 100 µM | OVCAR-8 > 100 µM | SW-620 > 100 µM | TK-10 > 100 µM | U-251 > 100 µM | UO-31 > 100 µM
